Emax and EC50 data for 19 compounds are collected here from patent US7700618B2 (Pfizer Inc, priority 2006, dated 2010).

For the assay, the target named is T1, Human CB2 (Homo sapiens, UniProt P34972).
T1 construct: expressed in transfected cells; host or cells: CHO-K1 (Chinese hamster ovary K1) cells
Nature of the assay: Agonist-induced cAMP change in human CB2 transfected CHO-K1 cells. The format is cell-based. The settings on record: forskolin 5 μM stimulated cAMP; for EC50: 30 min 37° C. The protocol:
Agonist-induced cAMP Change in Human CB2 Transfected CHO-K1 Cells
Human CB2 transfected Chinese hamster ovary-K1 (CHO-K1) cells were established and grown to 60-80% confluence. The medium was changed to F-12 medium containing 10% dialysed FBS, and the cells were incubated overnight. On the day of the assay, the cells were harvested with PBS/1 mM EDTA, centrifuged and washed with PBS. Cell pellets were resuspended in the incubation buffer (F-12 medium, 20 mM HEPES, 1 mM IBMX, 0.1 mM Ro-20-1724) at the concentration of 1×10^5 cells/ml and pre-incubated for 15 min at room temperature. The agonist samples were diluted from 10 mM stock solution in DMSO and dispensed into 96-well half-area plates (12.5 μl/well) with assay buffer (F-12, 20 mM HEPES). The reaction was initiated by adding the cells (25 μl/well) into the well containing forskolin (12.5 μL/well, final 5 μM) and diluted compounds. After incubation for 30 minutes at 37° C., cAMP-XL665 conjugated, and then the anti-cAMP-cryptase conjugate was added to the lysate (25 μl/well each). After further incubation for 60 minutes at room temperature, measurements were made on the Wallac 1420 ARVOsx multilabel counter (Excitation 320 nm, Emission 665 nm/620 nm, delay time 50 μs, window time 400 μs). Data analysis was made based on the ratio of fluorescence intensity of each well at 620 nm and 665 nm. The equation “sigmoldal dose-response” was used for the determination of EC50 and Emax values.

T1 sequence (P34972 whole entry): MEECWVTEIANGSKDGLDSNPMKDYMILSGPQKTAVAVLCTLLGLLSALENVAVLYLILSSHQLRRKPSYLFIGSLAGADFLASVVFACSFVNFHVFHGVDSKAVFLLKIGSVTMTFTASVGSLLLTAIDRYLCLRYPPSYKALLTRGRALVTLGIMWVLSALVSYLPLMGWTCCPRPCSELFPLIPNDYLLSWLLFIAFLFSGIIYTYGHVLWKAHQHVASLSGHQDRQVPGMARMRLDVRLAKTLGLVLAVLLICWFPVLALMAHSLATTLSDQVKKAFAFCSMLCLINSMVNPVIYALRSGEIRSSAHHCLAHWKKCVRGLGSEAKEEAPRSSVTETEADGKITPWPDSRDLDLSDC

In general, Emax refers to the greatest response seen or fitted, relative to the assay's reference. By EC50 is commonly meant the concentration at which the effect is half-maximal. Read a high EC50 as a need for much substance. Turning to `CN(C)C(=O)NCC(C)(C)S(=O)(=O)c1ccc2c(c1)nc(CC(C)(C)C)n2CC1CC1` [Example 15, N′-(2-{[1-(Cyclopropylmethyl)-2-(2,2-dimethylpropyl)-1H-benzimidazol-5-yl]sulfonyl}-2-methylpropyl)-N,N-dimethylurea], the Emax came to 113% and the EC50 was found to be 8.31 nM.
As to `CC(C)(C)Cc1nc2cc(S(=O)(=O)C(C)(C)CNC(N)=O)ccc2n1CC1CC1` [Example 17, N-(2-{[1-(Cyclopropylmethyl)-2-(2,2-dimethylpropyl)-1H-benzimidazol-5-yl]sulfonyl}-2-methylpropyl)urea], the maximum response (Emax) came to 120% and the 50% effective concentration (EC50) was 1.98 nM.
For `CC(C)(C)Cc1nc2cc(S(=O)(=O)C3(C(N)=O)CC3)ccc2n1CC1CC1` [Example 2, 1-{[1-(Cyclopropylmethyl)-2-(2,2-dimethylpropyl)-1H-benzimidazol-5-yl]sulfonyl}cyclopropanecarboxamide] the same measures were 160% and 0.15 nM.
The corresponding values for `CNC(=O)NCC(C)(C)S(=O)(=O)c1ccc2c(c1)nc(CC(C)(C)C)n2CC1CC1` [Example 16, N-(2-{[1-(Cyclopropylmethyl)-2-(2,2-dimethylpropyl)-1H-benzimidazol-5-yl]sulfonyl}-2-methylpropyl)-N′-methylurea] are 109% and 1.22 nM.
The corresponding values for `CC(C)(C)Cc1nc2cc(S(=O)(=O)C(C)(C)C(=O)NCCN)ccc2n1CC1CC1` [Example 11] are 117% and 13.7 nM.
`CC(=O)NC(C)(C)CS(=O)(=O)c1ccc2c(c1)nc(CC(C)(C)C)n2CC1CC1` [Example 19, N-(2-{[1-(Cyclopropylmethyl)-2-(2,2-dimethylpropyl)-1H-benzimidazol-5-yl]sulfonyl}-1,1-dimethylethyl)acetamide] had a maximal response (Emax) of 110% and an EC50 of 3.77 nM.
For `CC(=O)NCC(C)(C)S(=O)(=O)c1ccc2c(c1)nc(CC(C)(C)C)n2CC1CC1` [Example 13, N-(2-{[1-(Cyclopropylmethyl)-2-(2,2-dimethylpropyl)-1H-benzimidazol-5-yl]sulfonyl}-2-methylpropyl)acetamide] the same measures were 113% and 5.24 nM.
The corresponding values for `CC(C)(C)Cc1nc2cc(S(=O)(=O)C(C)(C)C(=O)N3CCOCC3)ccc2n1CC1CC1` [Example 6, 1-(Cyclopropylmethyl)-5-[(1,1-dimethyl-2-morpholin-4-yl-2-oxoethyl)sulfonyl]-2-(2,2-dimethylpropyl)-1H-benzimidazole] are 136% and 2.96 nM.
As to `CC(C)(C)Cc1nc2cc(S(=O)(=O)C(C)(C)C(=O)NCCO)ccc2n1CC1CC1` [Example 9, 2-{[1-(Cyclopropylmethyl)-2-(2,2-dimethylpropyl)-1H-benzimidazol-5-yl]sulfonyl}-N-(2-hydroxyethyl)-2-methylpropanamide], the maximal response (Emax) was 127% and the EC50 is 1.13 nM.
For `CC(C)(C)Cc1nc2cc(S(=O)(=O)C(C)(C)C(N)=O)ccc2n1CC1CC1` [Example 1, 2-{[1-(Cyclopropylmethyl)-2-(2,2-dimethylpropyl)-1H-benzimidazol-5-yl]sulfonyl}-2-methylpropanamide] the same measures were 118% and 0.91 nM.
For `CC(C)(C)Cc1nc2cc(S(=O)(=O)C3(C(N)=O)CCC3)ccc2n1CC1CC1` [Example 3, 1-{[1-(Cyclopropylmethyl)-2-(2,2-dimethylpropyl)-1H-benzimidazol-5-yl]sulfonyl}cyclobutanecarboxamide] the same measures were 121% and 0.45 nM.
For `CNC(=O)C(C)(C)S(=O)(=O)c1ccc2c(c1)nc(CC(C)(C)C)n2CC1CC1` [Example 8, 2-{[1-(Cyclopropylmethyl)-2-(2,2-dimethylpropyl)-1H-benzimidazol-5-yl]sulfonyl}-N,2-dimethylpropanamide] the same measures were 129% and 6.68 nM.
For the compound `CC(C)(C)c1nc2cc(S(=O)(=O)C(C)(C)C(N)=O)ccc2n1CC1(O)CCCC1` [Example 12, 2-({2-tert-Butyl-1-[(1-hydroxycyclopentyl)methyl]-1H-benzimidazol-5-yl}sulfonyl)-2-methylpropanamide], the maximum response (Emax) is 133% and a half-maximal effect (EC50) was put at 5.34 nM.
For `CC(C)(C)Cc1nc2cc(S(=O)(=O)C(C)(C)C(N)=O)cnc2n1CC1CC1` [Example 5, 2-{[3-(Cyclopropylmethyl)-2-(2,2-dimethylpropyl)-3H-imidazo[4,5-b]pyridin-6-yl]sulfonyl}-2-methylpropanamide], the Emax amounted to 118% and the EC50 worked out at 5.53 nM.
For `CC(C)(C)Cc1nc2cc(S(=O)(=O)CC(C)(C)NC(N)=O)ccc2n1CC1CC1` [Example 18, N-(2-{[1-(Cyclopropylmethyl)-2-(2,2-dimethylpropyl)-1H-benzimidazol-5-yl]sulfonyl}-1,1-dimethylethyl)urea], the maximal response (Emax) stood at 109% and a half-maximal response (EC50) required 26.4 nM.
The corresponding values for `CC(C)(C)Cc1nc2cc(S(=O)(=O)C3(C(N)=O)CCOCC3)ccc2n1CC1CC1` [Example 4, 4-{[1-(Cyclopropylmethyl)-2-(2,2-dimethylpropyl)-1H-benzimidazol-5-yl]sulfonyl}tetrahydro-2H-pyran-4-carboxamide] are 114% and 1.31 nM.
For `CN(C)C(=O)C(C)(C)S(=O)(=O)c1ccc2c(c1)nc(CC(C)(C)C)n2CC1CC1` [Example 7, 2-{[1-(Cyclopropylmethyl)-2-(2,2-dimethylpropyl)-1H-benzimidazol-5-yl]sulfonyl}-N,N,2-trimethylpropanamide] the same measures were 141% and 1.34 nM.
Regarding `CC(C)(C)Cc1nc2cc(S(=O)(=O)C(C)(C)C(=O)NCC(N)=O)ccc2n1CC1CC1` [Example 10], the Emax is 109% and the EC50 worked out at 3.64 nM.
For `CC(C)(C)Cc1nc2cc(S(=O)(=O)C(C)(C)CNS(C)(=O)=O)ccc2n1CC1CC1` [Example 14, N-(2-{[1-(Cyclopropylmethyl)-2-(2,2-dimethylpropyl)-1H-benzimidazol-5-yl]sulfonyl}-2-methylpropyl)methanesulfonamide] the same measures were 120% and 1.59 nM.
